Literature values as cited in patent US20090215818A1, “THIOZOLIDINEDIONE DERIVATIVES AS PI3 KINASE INHIBITORS” (SmithKline Beecham Corporation, priority 2006, published 2009).
Where two headings read alike, the source gives them in different places.

Assays:
[1] = system: Class I PI3-kinases; settings: each of the Class I PI3-kinases
[2] = target: CK2 protein kinase (Homo sapiens, UniProt P68400)
Chain of CK2 protein kinase (P68400 whole entry): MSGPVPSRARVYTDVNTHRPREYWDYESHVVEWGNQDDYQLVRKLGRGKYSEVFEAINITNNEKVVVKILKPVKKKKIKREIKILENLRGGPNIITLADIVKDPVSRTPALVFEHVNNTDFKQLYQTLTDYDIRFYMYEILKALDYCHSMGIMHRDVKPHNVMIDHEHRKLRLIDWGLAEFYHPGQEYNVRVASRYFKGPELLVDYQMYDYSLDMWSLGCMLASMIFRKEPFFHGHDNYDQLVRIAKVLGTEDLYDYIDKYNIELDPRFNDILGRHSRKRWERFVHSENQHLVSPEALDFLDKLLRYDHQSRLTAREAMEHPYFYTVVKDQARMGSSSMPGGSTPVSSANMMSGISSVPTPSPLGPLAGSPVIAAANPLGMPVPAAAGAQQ

Row | Molecule | IC50 ([1]; Fruman et al. 1998, read-out: IC50 against each of these PI3-kinases) [µM] | IC50 [2] [µM] | IC50 ([1]; read-out: IC50 against each of the various Class I PI3-kinases) [µM]
1 | O=c1cc(N2CCOCC2)oc2c(-c3ccccc3)cccc12 [LY294002] | 15 to 20 | 5 to 10 | –
2 | wortmannin | – | – | 0.001 to 0.01
